Measurements: the supplement of paper PMC10331698
± gives the standard deviation of the averaged measurements.

What was measured:
Assay in all cases: level (log10 ratio to DMSO vehicle control); higher = higher biomarker level / cell amount than vehicle control
Perfluoropinacol = compound: OC(C(F)(F)F)(C(F)(F)F)C(O)(C(F)(F)F)C(F)(F)F [Perfluoropinacol]; details: in DMSO
Experimental: (§1)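 BioMAP Diversity Plus panel of 12 human primary cell co-culture systems (3C, 4H, LPS, SAg, BT, BF4T, BE3C, CASM3C, HDF3CGF, KF3CT, MyoF, Mphg). Compounds were added 1 h before stimulation and left for 24 h (MyoF 48 h; BT 72 h for soluble read-outs or 6 d for IgG). Biomarkers were read by ELISA, cytotoxicity by SRB, PBMC viability and proliferation by Alamar Blue. Each well value was divided by the mean of 8 DMSO control wells on the same plate and log10 transformed; duplicate blinded samples were tested at 4 concentrations.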

Tetrafluorosuccinic acid = compound: O=C(O)C(F)(F)C(F)(F)C(=O)O [Tetrafluorosuccinic acid]; details: in DMSO
Experimental: as §1

[1] = compound: FC(F)(I)C(F)(F)C(F)(F)C(F)(F)C(F)(F)C(F)(F)I [1,6-Diiodoperfluorohexane]; details: 6700 nM; in DMSO
Experimental: as §1

Methotrexate = compound: CN(Cc1cnc2nc(N)nc(N)c2n1)c1ccc(C(=O)N[C@@H](CCC(=O)O)C(=O)O)cc1 [Methotrexate]; details: in DMSO
Experimental: as §1

[2] = compound: O=S(=O)(O)CCC(F)(F)C(F)(F)C(F)(F)C(F)(F)F [4:2 Fluorotelomer sulfonic acid]; details: in DMSO
Experimental: as §1

[3] = compound: O=C(Cl)C(F)(F)C(F)(F)C(F)(F)C(=O)Cl [Hexafluoroglutaryl chloride]; details: in DMSO
Experimental: as §1

[4] = compound: OCC(F)(F)C(F)(F)C(F)(F)C(F)(F)C(F)(F)C(F)(F)F [6:1 Fluorotelomer alcohol]; details: in DMSO
Experimental: as §1

Test System	level (log10) (Perfluoropinacol; 6700 nM)	level (log10) (Perfluoropinacol; 20000 nM)	level (log10) (Tetrafluorosuccinic acid; 6700 nM)	level (log10) (Tetrafluorosuccinic acid; 20000 nM)	level (log10) (Tetrafluorosuccinic acid; 60000 nM)	level (log10) [1]	level (log10) (Methotrexate; 1500 nM)	level (log10) (Methotrexate; 4400 nM)	level (log10) (Methotrexate; 13000 nM)	level (log10) (Methotrexate; 40000 nM)	level (log10) ([2]; 6700 nM)	level (log10) ([2]; 20000 nM)	level (log10) ([2]; 60000 nM)	level (log10) ([3]; 6700 nM)	level (log10) ([3]; 20000 nM)	level (log10) ([3]; 60000 nM)	level (log10) ([4]; 6700 nM)	level (log10) ([4]; 20000 nM)	level (log10) ([4]; 60000 nM)
MyoF:alpha-SM Actin	-0.004 ± 0.0028	-0.14 ± 0.035	0.0065 ± 0.025	-0.0165 ± 0.015	-0.0275 ± 0.037	-0.486	-0.001 ± 0.0028	-0.0225 ± 0.0092	-0.008 ± 0.0071	-0.017 ± 0.033	0 ± 0.052	0.022 ± 0.0028	0.035 ± 0.0028	-0.0115 ± 0.018	-0.0065 ± 0.057	-0.0105 ± 0.035	0 ± 0.0057	-0.006 ± 0.0099	0.011 ± 0.054
MyoF:bFGF	-0.0075 ± 0.012	-0.0225 ± 0.0092	0.0005 ± 0.0021	0.0095 ± 0.0078	-0.0045 ± 0.029	-0.127	-0.0095 ± 0.015	-0.0045 ± 0.021	0.009 ± 0.0071	-0.0095 ± 0.0035	-0.001 ± 0.0071	0.0025 ± 0.028	0.0055 ± 0.022	0.0045 ± 0.0035	-0.0035 ± 0.0078	0.0135 ± 0.0035	-0.001 ± 0.0014	0.0005 ± 0.013	0.006 ± 0.011
lMphg:CCL2/MCP-1	0.0265 ± 0.028	-0.148 ± 0.0014	-0.03 ± 0.016	-0.0195 ± 0.012	0.0005 ± 0.042	-0.029	0.0115 ± 0.03	0.008 ± 0.035	-0.0105 ± 0.033	-0.0055 ± 0.021	0.0005 ± 0.047	0.006 ± 0.025	-0.001 ± 0.0071	-0.005 ± 0.0099	-0.0025 ± 0.019	0.0125 ± 0.015	-0.016 ± 0.0028	-0.046 ± 0.023	-0.02 ± 0.0071
lMphg:CCL3/MIP-1alpha	0.116 ± 0.047	0.116 ± 0.062	-0.0145 ± 0.025	-0.0145 ± 0.00071	-0.001 ± 0.023	-0.016	-0.0375 ± 0.016	-0.0305 ± 0.00071	0.0035 ± 0.012	0.029 ± 0.027	0.047 ± 0.031	0.021 ± 0.054	0.0465 ± 0.042	0.001 ± 0.069	0.012 ± 0.034	0.0145 ± 0.073	0.009 ± 0.017	-0.0095 ± 0.036	0.0235 ± 0.083
lMphg:CD40	-0.0265 ± 0.019	-0.202 ± 0.03	-0.0125 ± 0.015	-0.011 ± 0.0014	0.009 ± 0.014	-0.029	0.0125 ± 0.005	0.0005 ± 0.013	-0.0155 ± 0.023	0.0045 ± 0.0021	-0.008 ± 0.0028	-0.015 ± 0.021	-0.026 ± 0.011	0.036 ± 0.037	0.0115 ± 0.022	-0.002 ± 0.011	-0.0065 ± 0.026	-0.0095 ± 0.019	-0.0235 ± 0.022
lMphg:CD62E/E-Selectin	0.0515 ± 0.013	-0.139 ± 0.018	-0.0075 ± 0.032	0.0085 ± 0.011	0.032 ± 0.013	0.033	-0.009 ± 0.0099	-0.0265 ± 0.028	-0.0135 ± 0.019	-0.011 ± 0.033	-0.0235 ± 0.033	-0.0105 ± 0.061	-0.0105 ± 0.011	-0.0295 ± 0.016	0.0025 ± 0.018	-0.0365 ± 0.022	0.009 ± 0.024	-0.008 ± 0.011	-0.002 ± 0.023
lMphg:CD69	-0.124 ± 0.026	-0.256 ± 0.058	-0.048 ± 0.021	0.0125 ± 0.047	0.059 ± 0.073	-0.01	-0.03 ± 0.021	-0.0135 ± 0.036	-0.0325 ± 0.057	-0.034 ± 0.054	-0.023 ± 0.0028	-0.014 ± 0.021	-0.044 ± 0.059	-0.021 ± 0.011	-0.032 ± 0.018	-0.0135 ± 0.029	-0.007 ± 0.047	-0.038 ± 0.052	-0.055 ± 0.073
lMphg:CD106/VCAM-1	0.0045 ± 0.0064	-0.077 ± 0.023	-0.017 ± 0.0028	0.0085 ± 0.0021	0.018 ± 0.03	-0.025	-0.001 ± 0.025	-0.016 ± 0.021	-0.002 ± 0.0057	-0.007 ± 0.021	-0.0145 ± 0.0078	-0.0075 ± 0.011	-0.0135 ± 0.005	-0.0075 ± 0.0078	-0.0015 ± 0.037	-0.0145 ± 0.042	0.0035 ± 0.021	0.0035 ± 0.032	0.0115 ± 0.04
lMphg:CXCL8/IL-8	0.0875 ± 0.061	0.161 ± 0.066	-0.0205 ± 0.0064	-0.025 ± 0.021	-0.0175 ± 0.023	0.018	0.0075 ± 0.046	-0.017	0.003 ± 0.023	0.044 ± 0.0057	-0.0295 ± 0.043	-0.0215 ± 0.021	0.005 ± 0.031	0.023 ± 0.011	0.027 ± 0.018	0.0625 ± 0.05	0.0335 ± 0.016	0.0395 ± 0.035	0.0375 ± 0.0092
lMphg:IL-1alpha	0.103 ± 0.021	0.149 ± 0.067	-0.016 ± 0.0057	-0.015 ± 0.025	-0.0035 ± 0.03	0.024	-0.0335 ± 0.097	-0.0545 ± 0.083	-0.041 ± 0.057	-0.028 ± 0.047	0.026 ± 0.048	0.0125 ± 0.032	0.007 ± 0.021	-0.0255 ± 0.052	-0.041 ± 0.086	-0.03 ± 0.082	0.007 ± 0.04	0.006 ± 0.061	0.001 ± 0.034
lMphg:M-CSF	-0.0155 ± 0.04	-0.0825 ± 0.013	-0.005 ± 0.018	-0.0105 ± 0.0092	0.019 ± 0.03	-0.023	-0.03 ± 0.034	-0.013 ± 0.025	-0.0295 ± 0.026	-0.013 ± 0.085	-0.0105 ± 0.0078	-0.024 ± 0.0099	-0.0175 ± 0.0035	0.011	-0.021 ± 0.031	0.018 ± 0.011	-0.023 ± 0.028	-0.0415 ± 0.035	-0.0285 ± 0.029
lMphg:SRB	-0.0315 ± 0.0035	-0.144 ± 0.0064	-0.008 ± 0.0014	0.001	0.001 ± 0.013	-0.028	0.0015 ± 0.0064	-0.0005 ± 0.00071	-0.002 ± 0.0085	0.0055 ± 0.00071	-0.0035 ± 0.00071	0.004 ± 0.0042	-0.001 ± 0.0042	0.008 ± 0.0057	0.012	0.0075 ± 0.0092	-0.001 ± 0.0099	-0.001 ± 0.0028	-0.0005 ± 0.0092
lMphg:SRB-Mphg	-0.015 ± 0.0099	-0.05 ± 0.0028	-0.0035 ± 0.015	-0.0075 ± 0.013	-0.013 ± 0.016	-0.023	-0.105 ± 0.073	-0.0855 ± 0.0021	-0.105 ± 0.064	0.0295 ± 0.025	-0.004	0.01	0.0065 ± 0.016	0.007 ± 0.0057	0.0065 ± 0.005	0.0125 ± 0.011	-0.0015 ± 0.0064	-0.02 ± 0.014	-0.0595 ± 0.054
lMphg:sIL-10	0.031 ± 0.017	-0.498 ± 0.24	-0.0085 ± 0.016	-0.0265 ± 0.097	0.0415 ± 0.11	-0.219	0.076 ± 0.03	0.05 ± 0.011	0.0485 ± 0.023	0.014 ± 0.028	0.015 ± 0.041	-0.0485 ± 0.032	-0.0545 ± 0.0064	-0.049 ± 0.045	-0.102 ± 0.0035	0.0335 ± 0.076	0.0065 ± 0.073	-0.0215 ± 0.013	-0.023 ± 0.0071
